The values that follow come from patent US8575203B2, “Chemical compounds” (Boehringer Ingelheim International GmbH, priority 2010, dated 2013).

Recombinant human PDK1 enzyme (aa 52-556), sequence (O15530 52-556): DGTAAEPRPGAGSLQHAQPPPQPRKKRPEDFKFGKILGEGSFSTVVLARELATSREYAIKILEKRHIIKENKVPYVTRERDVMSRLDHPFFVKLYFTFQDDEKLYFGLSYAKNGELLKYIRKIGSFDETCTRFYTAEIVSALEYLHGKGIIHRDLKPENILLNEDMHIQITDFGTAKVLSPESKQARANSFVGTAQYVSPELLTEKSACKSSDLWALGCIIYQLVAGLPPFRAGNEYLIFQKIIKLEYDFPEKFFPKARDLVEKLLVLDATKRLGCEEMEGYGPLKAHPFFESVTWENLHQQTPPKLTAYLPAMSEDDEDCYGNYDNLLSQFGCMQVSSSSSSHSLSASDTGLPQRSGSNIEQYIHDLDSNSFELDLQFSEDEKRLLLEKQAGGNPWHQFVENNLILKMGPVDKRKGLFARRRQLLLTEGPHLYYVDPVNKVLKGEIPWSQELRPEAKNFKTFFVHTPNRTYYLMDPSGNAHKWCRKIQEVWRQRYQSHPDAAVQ

The assay addresses Recombinant human PDK1 enzyme (aa 52-556) (Homo sapiens (Human), UniProt O15530). The experiment in a line: PDK1 kinase assay. It counts as biochemical. The settings on record: in vitro kinase assay, His6-PDK1 (aa 52-556), PDKtide, P33-ATP. The procedure:
The activity of the compounds according to the invention on the kinase PDK1 which inhibits the signal transduction pathway is determined in an in vitro kinase assay with recombinantly prepared protein:
Recombinant human PDK1 enzyme (aa 52-556) linked at its N-terminal end to His6 is isolated from baculovirus-infected insect cells. Purified enzyme may be obtained for example from the University of Dundee, Scotland. The following components are combined in a well of a 96-well round-based dish (Greiner bio-one, No. 650101): • 15 μL of compound to be tested in varying concentrations (e.g. starting at 10 μM, and diluted in steps of 1:5) in APT buffer (50 mM Tris/Cl pH 7.5; 0.05% β-mercaptoethanol; 10 mM Mg-acetate; 0.0166% Tween 20; 3.33% DMSO) • 15 μL His6-PDK1 (aa 52-556) 3.33 ng/well) and PDKtide ([…]), synthesised by Pepceuticals Limited, Nottingham, United Kingdom; 25 μM final concentration); His6-PDK1 and PDKtide are together diluted accordingly in assay buffer (50 mM tris pH 7.5, 0.05% β-mercaptoethanol, 10 mM Mg-acetate); PDKtide is present in this mixture as an 83.3 μM solution. These 30 μl are routinely incubated for 30 min at RT. • 20 μL ATP solution (25 μM ATP with 1.0 μCi/well gamma-P33-ATP). The final concentration of Tween 20 is 0.005%.
The reaction is started by adding the ATP solution and the mixture is incubated for 90 min at RT. At the start of the reaction the dishes are shaken gently. The reaction is stopped by the addition of 50 μL/well of 500 mM phosphoric acid (H3PO4) and incubated for about 20 min at RT. The precipitate is transferred by harvesting onto filter plates (96-well microtitre filter plate: UniFilter GF/C; Perkin Elmer; No. 6005174), then washed 6 times with 50 mM H3PO4 and dried at 60° C. Then the plate is stuck down with sealing tape, 25 μL/well of scintillation solution (Microscint 0; Perkin Elmer; No. 6013611) are added and the amount of P33 precipitated is measured using the Wallac Betacounter. The measured data are evaluated using Graphpad Prism software.
Broadly, the IC50 is the concentration that inhibits the measured activity by half. As for `CCNc1c([N+](=O)[O-])cnc2ccc(C#CCNC(=O)c3cncn(Cc4ccc(F)c(F)c4)c3=O)cc12` [I-126], the IC50 was 86 nM.
The result for `C[C@H](c1ccc(F)c(F)c1)n1cccc(C(=O)NCC#Cc2ccc3ncc(NC4CCN(C)CC4)nc3c2)c1=O` [I-30] reads 2 nM; that for `CCN(C)c1c(C#N)cnc2ccc(C#CCNC(=O)c3cccn(Cc4ccc(F)c(F)c4)c3=O)cc12` [II-103], 77 nM; that for `O=C(NCC#Cc1ccc2ncccc2c1)c1cncn(Cc2ccc(F)c(F)c2)c1=O` [I-80], 132 nM.
The result for `CC(C)Nc1cnc2ccc(C#CCNC(=O)c3cncn(Cc4ccc(F)c(F)c4)c3=O)cc2n1` [I-35] reads 21 nM; that for `Cc1n[nH]cc1-c1ccnc2ccc(C#CCNC(=O)c3cncn(Cc4ccc(F)c(F)c4)c3=O)cc12` [II-93], 24 nM.
The result for `O=C(NCC#Cc1ccc2nccc(OCC3CCCNC3)c2c1)c1cncn(Cc2ccc(F)c(F)c2)c1=O` (stereo not drawn) [I-123] reads 2 nM; that for `CN1CC[C@H](COc2ccnc3ccc(C#CCNC(=O)c4cccn(Cc5cc(F)c(F)c(F)c5)c4=O)cc23)C1` [I-125.9], 2 nM.
As to `O=C(NCC#Cc1ccc2ncc(N[C@H]3CC[C@H](N4CCOCC4)CC3)nc2c1)c1cncn(Cc2ccc(F)c(F)c2)c1=O` [I-40], the 50% inhibitory concentration (IC50) came to 2 nM.
For `CN(c1ncnc2ccc(C#CCNC(=O)c3cncn(Cc4ccc(F)c(F)c4)c3=O)cc12)C1CCCCC1` [II-22] the value was 371 nM.
For `O=C(NC1CC1)c1cnc2ccc(C#CCNC(=O)c3cncn(Cc4ccc(F)c(F)c4)c3=O)cc2c1` [II-73] the value was 31 nM; for `CNc1ncnc2ccc(C#CCNC(=O)c3cncn(Cc4ccc(F)c(F)c4)c3=O)cc12` [II-1], 12 nM; for `O=C(NCC#Cc1ccc2nccc(C3=CCNCC3)c2c1)c1cncn(Cc2ccc(F)c(F)c2)c1=O` [II-90], 86 nM.
Turning to `CNC(=O)c1cnc2ccc(C#CCNC(=O)c3cncn(Cc4ccc(F)c(F)c4)c3=O)c(C)c2c1` [II-69], the concentration for half-maximal inhibition (IC50) came out at 21 nM.
For `N[C@H]1CC[C@@H](Nc2cnc3ccc(C#CCNC(=O)c4cncn(Cc5ccc(F)c(F)c5)c4=O)cc3n2)CC1` [I-33] the value was 40 nM; for `CN(CCc1ccccc1)c1c(C#N)cnc2ccc(C#CCNC(=O)c3cccn(Cc4ccc(F)c(F)c4)c3=O)cc12` [II-106], 414 nM; for `CC(C)=Cc1cnc2ccc(C#CCNC(=O)c3cncn(Cc4ccc(F)c(F)c4)c3=O)cc2n1` [I-68], 233 nM.
For `CN(C)CCCNC(=O)c1cnc2ccc(C#CCNC(=O)c3cncn(Cc4ccc(F)c(F)c4)c3=O)cc2c1` [II-68] the value was 20 nM.
The result for `CC(=O)N[C@@H]1CCN(c2ncnc3ccc(C#CCNC(=O)c4cccn(Cc5ccc(F)c(F)c5)c4=O)cc23)C1` [II-30] reads 21 nM.
As for `COCCN1CCC(Nc2cnc3ccc(C#CCNC(=O)c4cccn(Cc5ccc(F)c(F)c5)c4=O)cc3c2)CC1` [I-74], the half-inhibitory concentration (IC50) was 8 nM.
Regarding `COCCN1CCC(Nc2cnc3ccc(C#CCNC(=O)c4cccn([C@H](CO)c5cccc(F)c5)c4=O)cc3n2)CC1` [I-55], the IC50 came out at 4 nM.
As for `O=C(NCC#Cc1ccc2ncnc(N3CC[C@H](O)C3)c2c1)c1cccn(Cc2ccc(F)c(F)c2)c1=O` [II-31], the IC50 was 114 nM.
For `O=C(NCC#Cc1ccc2ncc(OC3CCNCC3)cc2c1)c1cncn(Cc2ccc(F)c(F)c2)c1=O` [I-87] the value was 23 nM.
The result for `CNc1c([N+](=O)[O-])cnc2ccc(C#CCNC(=O)c3cncn(Cc4ccc(F)c(F)c4)c3=O)cc12` [I-127] reads 98 nM; that for `CC(C)Nc1c([N+](=O)[O-])cnc2ccc(C#CCNC(=O)c3cncn(Cc4ccc(F)c(F)c4)c3=O)cc12` [I-128], 116 nM.
The result for `CN(C)CCN(C)c1cnc2ccc(C#CCNC(=O)c3cncn(Cc4ccc(F)c(F)c4)c3=O)cc2n1` [I-11] reads 88 nM; that for `CN(C)CCCOc1cnc2ccc(C#CCNC(=O)c3cncn(Cc4ccc(F)c(F)c4)c3=O)cc2n1` [I-17], 95 nM.
